Laboratory results reported in publication PMC12527922, “Cocaine chemogenetics blunts drug-seeking by synthetic physiology” (Nature, 2025).
Where “and” joins values, the source holds several entries; their conditions need not be identical. Equal values may be shown once. Read-outs that look alike come from different tables or passages of the source.

What was measured:
control rats = assay: Cocaine IVSA (intravenous self-administration), control rats; format: in vivo, rat
[1] = biological target: α7–5HT3 mutant chimeric channels (Homo sapiens, UniProt P36544, Q139A); assay: cell-based; format: cell-based, human α7 nAChR LBD, mouse 5HT3 IPD
Chain of α7–5HT3 mutant chimeric channels (Homo sapiens, UniProt P36544, Q139A) (P23979 242-489): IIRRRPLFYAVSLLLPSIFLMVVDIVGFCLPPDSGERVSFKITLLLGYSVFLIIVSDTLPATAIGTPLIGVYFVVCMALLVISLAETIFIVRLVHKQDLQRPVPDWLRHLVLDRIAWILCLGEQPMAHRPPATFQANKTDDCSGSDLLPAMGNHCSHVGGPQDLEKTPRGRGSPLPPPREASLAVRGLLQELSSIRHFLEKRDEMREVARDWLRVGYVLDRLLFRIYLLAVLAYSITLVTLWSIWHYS
Chain of α7–5HT3 mutant chimeric channels (Homo sapiens, UniProt P36544, Q139A) (P36544 23-224 Q139A): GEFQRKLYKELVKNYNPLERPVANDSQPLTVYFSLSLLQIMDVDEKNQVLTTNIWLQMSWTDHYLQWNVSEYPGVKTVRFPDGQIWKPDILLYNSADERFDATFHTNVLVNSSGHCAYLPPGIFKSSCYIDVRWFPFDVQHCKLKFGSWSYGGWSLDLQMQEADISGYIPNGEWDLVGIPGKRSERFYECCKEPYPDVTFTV

[2] = biological target: α7–5HT3 mutant chimeric channels (Homo sapiens, UniProt P36544, L131G); assay: cell-based; format: cell-based, human α7 nAChR LBD, mouse 5HT3 IPD
Chain of α7–5HT3 mutant chimeric channels (Homo sapiens, UniProt P36544, L131G) (P36544 23-224 L131G): as the sequence (P36544 23-224 Q139A) above, with L109G, A117Q counted along it
Chain of α7–5HT3 mutant chimeric channels (Homo sapiens, UniProt P36544, L131G) (P23979 242-489, further chain): as the sequence (P23979 242-489) above

[3] = biological target: α7–5HT3 mutant chimeric channels (Homo sapiens, UniProt P36544, W77L); assay: cell-based; format: cell-based, human α7 nAChR LBD, mouse 5HT3 IPD
Chain of α7–5HT3 mutant chimeric channels (Homo sapiens, UniProt P36544, W77L) (P36544 23-224 W77L): as the sequence (P36544 23-224 Q139A) above, with W55L, A117Q counted along it
Chain of α7–5HT3 mutant chimeric channels (Homo sapiens, UniProt P36544, W77L) (P23979 242-489, further chain): as the sequence (P23979 242-489) above

[4] = biological target: α7–5HT3 mutant chimeric channels (Homo sapiens, UniProt P36544, Q139Y); assay: cell-based; format: cell-based, human α7 nAChR LBD, mouse 5HT3 IPD
Chain of α7–5HT3 mutant chimeric channels (Homo sapiens, UniProt P36544, Q139Y) (P36544 23-224 Q139Y): as the sequence (P36544 23-224 Q139A) above, with A117Y counted along it
Chain of α7–5HT3 mutant chimeric channels (Homo sapiens, UniProt P36544, Q139Y) (P23979 242-489, further chain): as the sequence (P23979 242-489) above

[5] = biological target: α7–5HT3 mutant chimeric channels (Homo sapiens, UniProt P36544, Q139D); assay: cell-based; format: cell-based, human α7 nAChR LBD, mouse 5HT3 IPD
Chain of α7–5HT3 mutant chimeric channels (Homo sapiens, UniProt P36544, Q139D) (P23979 242-489): as above
Chain of α7–5HT3 mutant chimeric channels (Homo sapiens, UniProt P36544, Q139D) (P36544 23-224 Q139D): as the sequence (P36544 23-224 Q139A) above, with A117D counted along it

[6] = biological target: coca-5HT3 (α7(L141G,G175K,Y210F,Y217F)–5HT3) (Homo sapiens, UniProt P36544, G175K/L141G/Y210F/Y217F); assay: Membrane potential assay, coca-5HT3 in HEK293; details: for Response / Max normalized Response: coca-5HT3; for Max normalized Response: ED Fig 3b
Chain of coca-5HT3 (α7(L141G,G175K,Y210F,Y217F)–5HT3) (P36544 23-224 L141G/G175K/Y210F/Y217F): as the sequence (P36544 23-224 Q139A) above, with A117Q, L119G, G153K, Y188F, Y195F counted along it
Chain of coca-5HT3 (α7(L141G,G175K,Y210F,Y217F)–5HT3) (P23979 242-489, further chain): as the sequence (P23979 242-489) above

## COC(=O)[C@H]1[C@@H](OC(=O)c2ccccc2)C[C@@H]2CC[C@H]1N2C [cocaine]
Control rats; Dose 0.0625
  Sheet 3g, Mean (per-rat counts at each dose): 37.2
  Sheet 3h, Mean (sheet 3g count x dose, intake): 2.325
Control rats; Dose 0.125
  Sheet 3g, Mean (per-rat counts at each dose): 69.7333
  Sheet 3h, Mean (sheet 3g count x dose, intake): 8.717
Control rats; Dose 0.25
  Sheet 3g, Mean (per-rat counts at each dose): 50.5385
  Sheet 3h, Mean (sheet 3g count x dose, intake): 12.6346
Control rats; Dose 0.5
  Sheet 3g, Mean (per-rat counts at each dose): 27.6667
  Sheet 3h, Mean (sheet 3g count x dose, intake): 13.8333
Control rats; Dose 1
  Sheet 3g, Mean (per-rat counts at each dose): 15
  Sheet 3h, Mean (sheet 3g count x dose, intake): 15
[1]
  EC50: > 30 µM
[1]; read-out: EC50 at a7 5HT3 Q139A, Avg, sheet 1d, Avg
  EC50: > 30 µM
[2]
  EC50: > 30 µM
[2]; read-out: EC50 at α75HT3 L131G, sheet 1d, single determinations
  EC50: > 30 µM
[3]
  EC50: > 30 µM
[3]; read-out: EC50 at a7 5HT3 W77L, Avg, sheet 1d, Avg
  EC50: > 30 µM
[4]
  EC50: > 30 µM
[4]; read-out: EC50 at a7 5HT3 Q139Y, Avg, sheet 1d, Avg
  EC50: > 30 µM
[5]
  EC50: > 30 µM
[5]; read-out: EC50 at a7 5HT3 Q139D, Avg, sheet 1d, Avg
  EC50: > 30 µM
[6]; EC50 at a75HT3 L141G G175K Y210F Y217F, AVG, sheet 1e
  EC50: 1.58 µM
[6]; EC50 at a75HT3 L141G G175K Y210F Y217F, sheet 1e, single determinations
  EC50: 1.8 µM and 1 µM and 2.64 µM and 0.81 µM and 1.25 µM and 0.84 µM and 2.8 µM
[6]; conc 0.0137 uM, ED Fig. 2c
  Response: 0.067
[6]; conc 0.0137174 uM, ED Fig. 2b
  Response: 0.067
[6]; conc 0.123 uM, ED Fig. 2c
  Response: 0.063
[6]; conc 0.123457 uM, ED Fig. 2b
  Response: 0.063
[6]; conc 0.137 uM
  Max normalized Response: 0.07313
[6]; conc 0.37 uM, ED Fig. 2c
  Response: 0.098
[6]; conc 0.37037 uM, ED Fig. 2b
  Response: 0.098
[6]; conc 0.457247 uM, ED Fig 3a
  Response: 0.103
[6]; conc 1.11111 uM, ED Fig. 2b
  Response: 0.363
[6]; conc 1.37174 uM, ED Fig 3a
  Response: 0.237
[6]; conc 3.33333 uM, ED Fig. 2b
  Response: 0.825
[6]; conc 3.7 uM
  Max normalized Response: 0.5001
[6]; conc 10 uM, ED Fig. 2b
  Response: 1.02
[6]; conc 10 uM, ED Fig. 2c
  Response: 1.023
[6]; conc 11.1 uM
  Max normalized Response: 0.7653
[6]; conc 12.3457 uM, ED Fig 3a
  Response: 1.106
[6]; conc 30 uM, ED Fig. 2b
  Response: 0.86
[6]; conc 30 uM, ED Fig. 2c
  Response: 0.864
[6]; conc 33.3 uM
  Max normalized Response: 0.8419
[6]; conc 37.037 uM, ED Fig 3a
  Response: 0.885
[6]; conc 100 uM
  Max normalized Response: 0.9656
[6]; half-maximum effective concentration (EC50), HEK293, fluorescence membrane potential assay
  EC50: 1.5 ± 0.3 µM
[6]; intravenous dose in rats, Pan et al 1991
  peak brain cocaine concentration relative to EC50 for coca-5HT3: approximately 1.5 fold
